From ChEMBL document CHEMBL1201862, “PubChem BioAssay data set” (2004)
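Five concentrations, 48 hours, 96-well plates. The concentration for 50% growth inhibition is given as GI50.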 Activity calls are given as the source filed them. No stated cut-off is given here; in the data, active = GI50 up to about 1.1 µM and inactive = higher.

Assays:
Test in all cases: growth of human tumour cells (NCI), 48 h
[1] = system: 786-0
[2] = system: A498
[3] = system: A549
[4] = system: ACHN
[5] = system: CAKI-1
[6] = system: CCRF-CEM
[7] = system: COLO 205
[8] = system: DLD-1
[9] = system: DMS-114
[10] = system: EKVX
[11] = system: HCT-116
[12] = system: HL-60
[13] = system: HOP-18
[14] = system: HOP-62
[15] = system: HOP-92
[16] = system: HT-29
[17] = system: IGROV-1
[18] = system: K562
[19] = system: KM-20L2
[20] = system: KM12
[21] = system: LOX IMVI
[22] = system: LXFL 529
[23] = system: M14
[24] = system: M19-MEL
[25] = system: MOLT-4
[26] = system: Malme-3M
[27] = system: NCI-H226
[28] = system: NCI-H23
[29] = system: NCI-H460
[30] = system: NCI-H522
[31] = system: OVCAR-3
[32] = system: OVCAR-4
[33] = system: OVCAR-8
[34] = system: RPMI-8226
[35] = system: RXF 393
[36] = system: RXF 631
[37] = system: SF-268
[38] = system: SF-295
[39] = system: SF-539
[40] = system: SK-MEL-28
[41] = system: SK-MEL-5
[42] = system: SK-OV-3
[43] = system: SN12C
[44] = system: SNB-19
[45] = system: SNB-75
[46] = system: SNB-78
[47] = system: SR
[48] = system: SW-620
[49] = system: TK-10
[50] = system: U-251
[51] = system: UACC-257
[52] = system: UACC-62
[53] = system: UO-31
[54] = system: XF498
[55] = system: DMS-273
[56] = system: HCC 2998
[57] = system: HCT-15
[58] = system: OVCAR-5
[59] = system: SK-MEL-2

In the case of `C=C=C(CC)C(C(=O)OC)N(CC)CC` (stereo unspecified), the GI50 [1] is reported as > 100 µM (inactive), the GI50 [2] is reported as > 100 µM (inactive) and the GI50 [3] is reported as > 100 µM (inactive). For the same molecule, the GI50 [4] was > 100 µM (inactive), the GI50 [5] was > 100 µM (inactive) and the GI50 [6] was > 100 µM (inactive). The GI50 [7] was > 100 µM (inactive), the GI50 [8] was > 100 µM (inactive) and the GI50 [9] was > 100 µM (inactive). The GI50 [10] was > 100 µM (inactive), the GI50 [11] was > 100 µM (inactive) and the GI50 [12] was > 100 µM (inactive). For the same molecule, the GI50 [13] was > 100 µM (inactive), the GI50 [14] was > 100 µM (inactive) and the GI50 [15] was > 100 µM (inactive). For the same molecule, the GI50 [16] was > 100 µM (inactive), the GI50 [17] was > 100 µM (inactive) and the GI50 [18] was > 100 µM (inactive). For the same molecule, the GI50 [19] was > 100 µM (inactive), the GI50 [20] was > 100 µM (inactive) and the GI50 [21] was > 100 µM (inactive). The GI50 [22] was > 100 µM (inactive), the GI50 [23] was > 100 µM (inactive) and the GI50 [24] was > 100 µM (inactive). The GI50 [25] was > 100 µM (inactive), the GI50 [26] was > 100 µM (inactive) and the GI50 [27] was > 100 µM (inactive). The GI50 [28] was > 100 µM (inactive), the GI50 [29] was > 100 µM (inactive) and the GI50 [30] was > 100 µM (inactive). For the same molecule, the GI50 [31] was > 100 µM (inactive), the GI50 [32] was > 100 µM (inactive) and the GI50 [33] was > 100 µM (inactive). The GI50 [34] was > 100 µM (inactive), the GI50 [35] was > 100 µM (inactive) and the GI50 [36] was > 100 µM (inactive). For the same molecule, the GI50 [37] was > 100 µM (inactive), the GI50 [38] was > 100 µM (inactive) and the GI50 [39] was > 100 µM (inactive). The GI50 [40] was > 100 µM (inactive), the GI50 [41] was > 100 µM (inactive) and the GI50 [42] was > 100 µM (inactive). For the same molecule, the GI50 [43] was > 100 µM (inactive), the GI50 [44] was > 100 µM (inactive) and the GI50 [45] was > 100 µM (inactive). The GI50 [46] was > 100 µM (inactive), the GI50 [47] was > 100 µM (inactive) and the GI50 [48] was > 100 µM (inactive). For the same molecule, the GI50 [49] was > 100 µM (inactive), the GI50 [50] was > 100 µM (inactive) and the GI50 [51] was > 100 µM (inactive). For the same molecule, the GI50 [52] was > 100 µM (inactive), the GI50 [53] was > 100 µM (inactive) and the GI50 [54] was > 100 µM (inactive).
For `C1=Cc2nc1c(-c1ccccc1)c1nc(c(-c3ccccc3)c3ccc([nH]3)c(-c3ccccc3)c3ccc([nH]3)c2-c2ccccc2)C=C1` [TETRAPHENYLPORPHYRIN], the GI50 [1] was > 100 µM (inactive), the GI50 [2] was > 100 µM (inactive) and the GI50 [3] was > 100 µM (inactive). For the same molecule, the GI50 [4] was > 100 µM (inactive), the GI50 [5] was > 100 µM (inactive) and the GI50 [6] was > 100 µM (inactive). For the same molecule, the GI50 [7] was > 100 µM (inactive), the GI50 [8] was > 100 µM (inactive) and the GI50 [9] was > 100 µM (inactive). For the same molecule, the GI50 [55] was > 100 µM (inactive), the GI50 [10] was > 100 µM (inactive) and the GI50 [56] was > 100 µM (inactive). The GI50 [11] was > 100 µM (inactive), the GI50 [57] was over 100 µM and the GI50 [12] was > 100 µM (inactive). For the same molecule, the GI50 [13] was > 100 µM (inactive), the GI50 [14] was > 100 µM (inactive) and the GI50 [15] was > 100 µM (inactive). For the same molecule, the GI50 [16] was > 100 µM (inactive), the GI50 [17] was > 100 µM (inactive) and the GI50 [18] was > 100 µM (inactive). The GI50 [19] was > 100 µM (inactive), the GI50 [20] was > 100 µM (inactive) and the GI50 [21] was > 100 µM (inactive). The GI50 [22] was > 100 µM (inactive), the GI50 [23] was > 100 µM (inactive) and the GI50 [24] was > 100 µM (inactive). The GI50 [25] was > 100 µM (inactive), the GI50 [26] was > 100 µM (inactive) and the GI50 [27] was > 100 µM (inactive). The GI50 [28] was > 100 µM (inactive), the GI50 [29] was > 100 µM (inactive) and the GI50 [30] was > 100 µM (inactive). For the same molecule, the GI50 [31] was > 100 µM (inactive), the GI50 [32] was > 100 µM (inactive) and the GI50 [58] was > 100 µM (inactive). For the same molecule, the GI50 [33] was > 100 µM (inactive), the GI50 [34] was > 100 µM (inactive) and the GI50 [36] was > 100 µM (inactive). The GI50 [37] was > 100 µM (inactive), the GI50 [38] was > 100 µM (inactive) and the GI50 [39] was > 100 µM (inactive). The GI50 [40] was > 100 µM (inactive), the GI50 [59] was > 100 µM (inactive) and the GI50 [41] was > 100 µM (inactive). For the same molecule, the GI50 [42] was > 100 µM (inactive), the GI50 [43] was > 100 µM (inactive) and the GI50 [44] was > 100 µM (inactive). For the same molecule, the GI50 [45] was > 100 µM (inactive), the GI50 [46] was > 100 µM (inactive) and the GI50 [47] was > 100 µM (inactive). For the same molecule, the GI50 [48] was > 100 µM (inactive), the GI50 [49] was > 100 µM (inactive) and the GI50 [50] was > 100 µM (inactive). For the same molecule, the GI50 [51] was > 100 µM (inactive), the GI50 [52] was > 100 µM (inactive) and the GI50 [53] was > 100 µM (inactive).
